This passage reports IC50 results from patent publication US10329295B2, “Pyrrolotriazine inhibitors of IRAK4 activity” (MERCK SHARP & DOHME CORP., priority 2015, dated 2019).

Molecules are shown by their SMILES. Counter-ions that a name gives are not always drawn.

Chain of GST tagged IRAK4 (Q9NWZ3 whole entry): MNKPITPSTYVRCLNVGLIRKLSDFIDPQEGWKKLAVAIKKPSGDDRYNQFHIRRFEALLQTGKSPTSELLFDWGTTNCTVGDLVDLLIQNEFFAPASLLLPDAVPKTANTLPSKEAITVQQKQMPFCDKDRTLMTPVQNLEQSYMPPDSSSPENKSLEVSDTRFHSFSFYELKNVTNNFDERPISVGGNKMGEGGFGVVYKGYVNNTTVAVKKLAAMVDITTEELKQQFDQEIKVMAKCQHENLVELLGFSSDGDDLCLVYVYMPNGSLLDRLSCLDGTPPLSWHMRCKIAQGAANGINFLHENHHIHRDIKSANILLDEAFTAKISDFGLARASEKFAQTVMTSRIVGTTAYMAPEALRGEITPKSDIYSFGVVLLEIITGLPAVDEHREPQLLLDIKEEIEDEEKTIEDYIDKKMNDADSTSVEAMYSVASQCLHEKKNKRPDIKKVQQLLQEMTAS

The target in the assay is GST tagged IRAK4 (Homo sapiens (Human), UniProt Q9NWZ3). As to the kind of experiment: IRAK4 Kinase Assay (IMAP fluorescence polarization). In kind it is biochemical. Particulars: 0.5 nM GST tagged IRAK4, 100 μM ATP, 30 minutes at 25° C. In short, it runs like this:
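Phosphorylation of a fluorescent peptide (100 nM) was detected by IMAP nanoparticle binding as increased fluorescence polarization. The enzyme was GST-tagged IRAK4 at 0.5 nM, with 100 μM ATP, 1 mM MgCl2 and Tris-HCl pH 7.2. ATP-initiated reactions ran 30 minutes at 25° C.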
In the case of `O=C(Nc1ccccc1Br)c1ccc2cnc(N3C[C@@H]4CC[C@H]3CN4)nn12` (single isomer, unassigned) [Example 84, N-(2-bromophenyl)-2-[(1S,4S)- or (1R,4R)-2,5-diazabicyclo[2.2.2]oct-2-yl]pyrrolo[2,1-f][1,2,4]triazine-7-carboxamide trifluoroacetate], it took 7810 nM to reach half-maximal inhibition (IC50).

The compound `N[C@H]1CCCC[C@H]1Nc1ncc2ccc(C(=O)Nc3ccccc3C(F)F)n2n1` [Example 56, 2-{[(1R,2S)-2-aminocyclohexyl]amino}-N-[2-(difluoromethyl)phenyl]-pyrrolo[2,1-f][1,2,4]triazine-7-carboxamide trifluoroacetate] showed an IC50 of 88 nM.

As for `Cn1cc(NC(=O)c2ccc3cnc(N[C@@H]4CC(F)(F)CC[C@@H]4N)nn23)c(C(F)F)n1` (single isomer, unassigned) [Example 140, 2-{[(1S,2R)- or (1R,2S)-2-amino-5,5-difluorocyclohexyl]amino}-N-[3-(difluoromethyl)-1-methyl-1H-pyrazol-4-yl]pyrrolo[2,1-f][1,2,4]triazine-7-carboxamide], the IC50 was found to be 3 nM.

For `Cn1cc(NC(=O)c2ccc3cnc(N[C@@H]4CNC[C@H](F)C4)nn23)c(C(F)(F)F)n1` [Example 154, 2-{[(3S,5R)-5-fluoropiperidin-3-yl]amino}-N-[1-methyl-3-(trifluoromethyl)-1H-pyrazol-4-yl]pyrrolo[2,1-f][1,2,4]triazine-7-carboxamide], the IC50 was 53 nM. This IC50 is about 18-fold higher than that of the compound before.

`Cn1cc(NC(=O)c2ccc3cnc(N4C[C@H]5CN[C@H](C5)C4)nn23)c(C(F)(F)F)n1` (single isomer, unassigned) [Example 101, 2-[(1S,5S)- or (1R,5R)-3,6-diazabicyclo[3.2.1]oct-3-yl]-N-[1-methyl-3-(trifluoromethyl)-1H-pyrazol-4-yl]pyrrolo[2,1-f][1,2,4]triazine-7-carboxamide] showed an IC50 of 277 nM. This IC50 is about 5.2-fold higher than that of the compound before.

`O=C(Nc1ccccc1Br)c1ccc2cnc(N3C[C@H]4CC[C@@H]3CN4)nn12` (single isomer, unassigned) [Example 77, N-(2-bromophenyl)-2-[(1S,4S)- or (1R,4R)-2,5-diazabicyclo[2.2.2]oct-2-yl]pyrrolo[2,1-f][1,2,4]triazine-7-carboxamide trifluoroacetate] showed an IC50 of 1960 nM.

As to `Cn1cc(NC(=O)c2ccc3cnc(N4C[C@@H]5CNC[C@H]4C5)nn23)c(C(F)(F)F)n1` (single isomer, unassigned) [Example 116, 2-[(1S,5R)- or (1R,5S)-3,6-diazabicyclo[3.2.1]oct-6-yl]-N-[1-methyl-3-(trifluoromethyl)-1H-pyrazol-4-yl]pyrrolo[2,1-f][1,2,4]triazine-7-carboxamide], the IC50 was determined as 45 nM.

`O=C(Nc1cscc1Cl)c1ccc2cnc(N3CCCNCC3)nn12` [Example 105, N-(4-chlorothiophen-3-yl)-2-(1,4-diazepan-1-yl)pyrrolo[2,1-f][1,2,4]triazine-7-carboxamide trifluoroacetate] returned an IC50 of 4820 nM.

The compound `Cn1cc(NC(=O)c2ccc3cnc(N4C5CCC4CNC5)nn23)c(C(F)(F)F)n1` [Example 96, 2-(3,8-diazabicyclo[3.2.1]oct-8-yl)-N-[1-methyl-3-(trifluoromethyl)-1H-pyrazol-4-yl]pyrrolo[2,1-f][1,2,4]triazine-7-carboxamide trifluoroacetate] yielded a half-maximal inhibitory concentration (IC50) of 5 nM.

In the case of `Cn1cc(NC(=O)c2ccc3cnc(N[C@@H]4CCCC(F)(F)[C@@H]4N)nn23)c(C#N)n1` [Example 98, 2-{[(1R,2R)-2-amino-3,3-difluorocyclohexyl]amino}-N-(3-cyano-1-methyl-1H-pyrazol-4-yl)pyrrolo[2,1-f][1,2,4]triazine-7-carboxamide trifluoroacetate], half-maximal inhibition (IC50) was put at 86 nM. Against the preceding compound, the IC50 is about 17-fold higher.

For `Cn1cc(NC(=O)c2ccc3cnc(N4C[C@@H]5CN[C@@H](C5)C4)nn23)c(C(F)F)n1` (single isomer, unassigned) [Example 103, 2-[(1S,5S)- or (1R,5R)-3,6-diazabicyclo[3.2.1]oct-3-yl]-N-[3-(difluoromethyl)-1-methyl-1H-pyrazol-4-yl]pyrrolo[2,1-f][1,2,4]triazine-7-carboxamide], it took 10 nM to reach half-maximal inhibition (IC50).

As to `Cn1cc(NC(=O)c2ccc3cnc(N4C[C@H](N)C[C@@H](F)C4)nn23)c(C(F)(F)F)n1` [Example 149, 2-[(3R,5R)-3-amino-5-fluoropiperidin-1-yl]-N-[1-methyl-3-(trifluoromethyl)-1H-pyrazol-4-yl]pyrrolo[2,1-f][1,2,4]triazine-7-carboxamide trifluoroacetate], the IC50 is 0.8 nM.

Compound `N#Cc1ccccc1NC(=O)c1ccc2cnc(N[C@@H]3CCCC[C@@H]3O)nn12` [Example 71, N-(2-cyanophenyl)-2-{[(1R,2S)-2-hydroxycyclohexyl]amino}-pyrrolo[2,1-f][1,2,4]triazine-7-carboxamide] yielded an IC50 of 661 nM. This IC50 is about 830-fold higher than that of the compound before.

`O=C(Nc1cscc1Cl)c1ccc2cnc(N3C[C@H]4CC[C@@H]3CN4)nn12` (single isomer, unassigned) [Example 108, N-(4-chlorothiophen-3-yl)-2-[(1S,4S)- or (1R,4R)-2,5-diazabicyclo[2.2.2]oct-2-yl]pyrrolo[2,1-f][1,2,4]triazine-7-carboxamide trifluoroacetate] returned an IC50 of 198 nM. This IC50 is about 3.3-fold lower than that of the compound before.

Regarding `Cn1cc(NC(=O)c2ccc3cnc(N4CCC[C@@H](N)C4)nn23)c(C#N)n1` [Example 125, 2-[(3R)-3-aminopiperidin-1-yl]-N-(3-cyano-1-methyl-1H-pyrazol-4-yl)pyrrolo[2,1-f][1,2,4]triazine-7-carboxamide trifluoroacetate], the IC50 was found to be 1 nM.

In turn, `N#Cc1ccccc1NC(=O)c1ccc2cnc(N[C@@H]3CCCC(F)(F)[C@@H]3N)nn12` [Example 136, 2-{[(1R,2R)-2-amino-3,3-difluorocyclohexyl]amino}-N-(2-cyanophenyl)pyrrolo[2,1-f][1,2,4]triazine-7-carboxamide trifluoroacetate] returned an IC50 of 860 nM. This IC50 is about 860-fold higher than that of the compound before.

The compound `Cn1cc(NC(=O)c2ccc3cnc(N4CCCNCC4)nn23)c(Br)n1` [Example 67, N-(3-bromo-1-methyl-1H-pyrazol-4-yl)-2-(1,4-diazepan-1-yl)pyrrolo[2,1-f][1,2,4]triazine-7-carboxamide trifluoroacetate] displayed an IC50 of 39 nM.

`Cn1cc(NC(=O)c2ccc3cnc(N4C[C@@H]5CC[C@H]4CN5)nn23)c(C#N)n1` (single isomer, unassigned) [Example 46, N-(3-cyano-1-methyl-1H-pyrazol-4-yl)-2-[(1S,4S)- or (1R,4R)-2,5-diazabicyclo[2.2.2]oct-2-yl]pyrrolo[2,1-f][1,2,4]triazine-7-carboxamide trifluoroacetate] yielded an IC50 of 72 nM.

`N[C@@H]1[C@H](Nc2ncc3ccc(C(=O)Nc4ccsc4C(F)(F)F)n3n2)CCCC1(F)F` [Example 95, 2-{[(1R,2R)-2-amino-3,3-difluorocyclohexyl]amino}-N-[2-(trifluoromethyl)thiophen-3-yl]pyrrolo[2,1-f][1,2,4]triazine-7-carboxamide trifluoroacetate] showed an IC50 of 4700 nM.

In turn, `N#Cc1cscc1NC(=O)c1ccc2cnc(N3CCCNCC3)nn12` [Example 12, N-(4-cyanothiophen-3-yl)-2-(1,4-diazepan-1-yl)pyrrolo[2,1-f][1,2,4]triazine-7-carboxamide trifluoroacetate] registered an IC50 of 365 nM.

For `O=C(Nc1ccsc1C(F)(F)F)c1ccc2cnc(N3CCCNCC3)nn12` [Example 85, 2-(1,4-diazepan-1-yl)-N-[2-(trifluoromethyl)thiophen-3-yl]pyrrolo[2,1-f][1,2,4]triazine-7-carboxamide trifluoroacetate], the IC50 was determined as 2640 nM. Against the preceding compound, the IC50 is about 7.2-fold higher.

For `Cn1cc(NC(=O)c2ccc3cnc(N4C[C@H]5CNC[C@@H]4C5)nn23)c(C(F)(F)F)n1` (single isomer, unassigned) [Example 117, 2-[(1S,5R)- or (1R,5S)-3,6-diazabicyclo[3.2.1]oct-6-yl]-N-[1-methyl-3-(trifluoromethyl)-1H-pyrazol-4-yl]pyrrolo[2,1-f][1,2,4]triazine-7-carboxamide], half-maximal inhibition (IC50) was put at 145 nM.

`Cn1cc(NC(=O)c2ccc3cnc(N[C@@H]4CCCNC4)nn23)c(C(F)(F)F)n1` [Example 5, N-[1-methyl-3-(trifluoromethyl)-1H-pyrazol-4-yl]-2-[(3R)-piperidin-3-ylamino]pyrrolo[2,1-f][1,2,4]triazine-7-carboxamide trifluoroacetate] registered an IC50 of 2 nM.

Turning to `Cn1cc(NC(=O)c2ccc3cnc(N4CCCNCC4)nn23)c(Cl)n1` [Example 26, N-(3-chloro-1-methyl-1H-pyrazol-4-yl)-2-(1,4-diazepan-1-yl)pyrrolo[2,1-f][1,2,4]triazine-7-carboxamide trifluoroacetate], it took 61 nM to reach half-maximal inhibition (IC50).

For `O=C(Nc1ccccc1Cl)c1ccc2cnc(N3C[C@H]4CC[C@@H]3CN4)nn12` (single isomer, unassigned) [Example 55, N-(2-chlorophenyl)-2-[(1S,4S)- or (1R,4R)-2,5-diazabicyclo[2.2.2]oct-2-yl]pyrrolo[2,1-f][1,2,4]triazine-7-carboxamide trifluoroacetate], 557 nM corresponded to half-maximal inhibition (IC50).

In turn, `N#Cc1sccc1NC(=O)c1ccc2cnc(N3CC4CCC3CN4)nn12` (stereo not shown) [Example 22, N-(2-cyanothiophen-3-yl)-2-(2,5-diazabicyclo[2.2.2]oct-2-yl)pyrrolo[2,1-f][1,2,4]triazine-7-carboxamide trifluoroacetate] came in with an IC50 of 399 nM.

Regarding `N#Cc1ccccc1NC(=O)c1ccc2cnc(N[C@@H]3CCCCNC3)nn12` (single isomer, unassigned) [Example 73, 2-[(3S)- or (3R)-azepan-3-ylamino]-N-(2-cyanophenyl)pyrrolo[2,1-f][1,2,4]triazine-7-carboxamide trifluoroacetate], half-maximal inhibition (IC50) was put at 27 nM.

`COCCn1cc(NC(=O)c2ccc3cnc(N[C@@H]4CCCC[C@@H]4N)nn23)cn1` [Example 168, 2-{[(1R,2S)-2-aminocyclohexyl]amino}-N-[1-(2-methoxyethyl)-1H-pyrazol-4-yl]pyrrolo[2,1-f][1,2,4]triazine-7-carboxamide trifluoroacetate]: 301 nM corresponded to half-maximal inhibition (IC50).
